What was measured:
[1] = tested on: CD11b expression in THP-1 (AML) cells; test: LSD1 CD11b cellular assay (flow cytometry); format: cell-based; conditions: Homo sapiens, 96 h, THP-1 cells, 4 days
Protocol: To analyze LSD1 inhibitor efficacy in cells, a CDL11b flow cytometry assay was performed. LSD1 inhibition induces CD11b expression in THP-1 (AML) cells which can be measured by flow cytometry. […] LSD 1 test compounds were serially diluted in DMSO. The dilutions were added to each well accordingly to a final concentration of 0.2% DMSO. The cells were incubated at 37 degrees Celsius in 5% CO2 for 4 days. 250 μL of each well was transferred to a well in a 96 well round bottom plate. The plate was centrifuged at 1200 rpm at 4 degrees Celsius in a Beckman Coulter Alegra 6KR centrifuge for 5 minutes. The media was removed leaving the cells at the bottom of the wells. The cells were washed in 100 μL cold HBSS (Hank's Balanced Salt Solution) plus 2% BSA (Bovine Serum Albumin) solution and centrifuged at 1200 rpm at 4 degrees Celsius for 5 minutes. The wash was removed. […] The cells were centrifuged and washed two times in 100 μl HBSS plus 2% BSA. After the final spin the cells were resuspended in 100 μL HBSS plus 2% BSA containing 1 ug/mL DAPI (4′,6-diamidino-2-phenylindole). The cells were then analyzed by flow cytometry in a BD FACSAria machine. Cells were analyzed for CD11b expression. The percent of CD11b expressing cells for each inhibitor concentration was used to determine an IC50 curve for each compound analyzed.

full-length human LSD1 = full-length human LSD1 (Homo sapiens (Human), UniProt O60341); test: In vitro enzyme inhibition assay LSD-1 (TR-FRET); format: biochemical; conditions: H3K4me1-biotin peptide
Protocol: This assay determines the ability of a test compound to inhibit LSD1 demethylase activity.
The enzymatic assay of LSD1 activity is based on Time Resolved-Fluorescence Resonance Energy Transfer (TR-FRET) detection.
Plates were read by EnVision Multilabel Reader in TR-FRET mode (excitation at 320 nm, emission at 615 nm and 665 nm) after 1 hour incubation at room temperature.
The ability of the compounds disclosed herein to inhibit LSD1 activity was quantified and the respective IC50 value was determined.

Compound | IC50 [1] | IC50 (full-length human LSD1)
CN(C)[C@H]1CCN(C(=O)c2nc(-c3ccc(C#N)c(F)c3)n(-c3ccc4nn(C)c(Cl)c4c3)c2F)C1 [Example 58, 4-[1-(3-Chloro-2-methylindazol-5-yl)-4-[(3S)-3-(dimethylamino)pyrrolidine-1-carbonyl]-5-fluoroimidazol-2-yl]-2-fluorobenzonitrile] | < 100 nM | < 100 nM
Cc1ccc(-c2c(-c3ccc(C#N)c(F)c3)cc(C(=O)N3CCC[C@@H](N)C3)n2CCO)cc1 [Example 4, 4-[5-(3-(R)-amino-piperidine-1-carbonyl)-1-(2-hydroxy-ethyl)-2-p-tolyl-1H-pyrrol-3-yl]-2-fluoro-benzonitrile] | < 100 nM | < 100 nM
Cn1c(C(=O)N2CCC[C@@H](N)C2)cc(-c2ccc(C#N)c(F)c2)c1-c1ccc2c(c1)ncn2C [Example 10, 4-[5-(3-(R)-amino-piperidine-1-carbonyl)-1-methyl-2-(1-methyl-1H-benzoimidazol-5-yl)-1H-pyrrol-3-yl]-2-fluoro-benzonitrile] | < 100 nM | < 100 nM
CN1CCC[C@@H](NC(=O)c2cn(-c3ccc4nn(C)c(Cl)c4c3)c(-c3ccc(C#N)c(F)c3)n2)C1 [Example 59, 1-(3-Chloro-2-methylindazol-5-yl)-2-(4-cyano-3-fluorophenyl)-N-[(3R)-1-methylpiperidin-3-yl]imidazole-4-carboxamide] | < 100 nM | < 100 nM
Cn1cc2cc(-c3c(-c4ccc(C#N)c(F)c4)cc(C(=O)N[C@@H]4CCNC4)n3C)ccc2n1 [Example 30, N-((3R)pyrrolidin-3-yl)[4-(4-cyano-3-fluorophenyl)-1-methyl-5-(2-methyl(2H-indazol-5-yl))pyrrol-2-yl]carboxamide] | < 100 nM | < 100 nM
CN[C@H]1CCN(C(=O)c2nc(-c3ccc(C#N)c(F)c3)n(-c3ccc4nn(C)c(C)c4c3)c2C)C1 [Example 103, 4-[1-(2,3-Dimethylindazol-5-yl)-5-methyl-4-[(3S)-3-(methylamino)pyrrolidine-1-carbonyl]imidazol-2-yl]-2-fluorobenzonitrile] | < 100 nM | < 100 nM
COc1ccc(-c2c(-c3ccc(C#N)c(F)c3)cc(C(=O)N3CCC[C@@H](N)C3)n2C)cc1 [Example 2, 4-[5-(3-(R)-amino-piperidine-1-carbonyl)-2-(4-methoxy-phenyl)-1-methyl-1H-pyrrol-3-yl]-2-fluoro-benzonitrile] | < 100 nM | < 100 nM
Cn1nc2ccc(-n3cc(C(=O)N4CCC5(CCN5)C4)nc3-c3ccc(C#N)c(F)c3)cc2c1Cl (stereo not shown) [Example 93, 4-[1-(3-Chloro-2-methylindazol-5-yl)-4-(1,7-diazaspiro[3.4]octane-7-carbonyl)imidazol-2-yl]-2-fluorobenzonitrile] | 100 to 1000 nM | < 100 nM
Cc1ccc(-c2c(-c3ccc(C#N)cc3)cc(C(=O)N3CCC[C@@H](N)C3)n2C)cc1 [Example 1, 4-[5-(3-(R)-amino-piperidine-1-carbonyl)-1-methyl-2-p-tolyl-1H-pyrrol-3-yl]-benzonitrile] | < 100 nM | < 100 nM
Cc1c2cc(-n3c(-c4ccc(C#N)c(F)c4)nc(C(=O)N4CC[C@H](N(C)C)C4)c3C)ccc2nn1C [Example 102, 4-[4-[(3S)-3-(Dimethylamino)pyrrolidine-1-carbonyl]-1-(2,3-dimethylindazol-5-yl)-5-methylimidazol-2-yl]-2-fluorobenzonitrile] | < 100 nM | < 100 nM
Cc1c(C(=O)N2CC[C@H](N)C2)nc(-c2ccc(C#N)c(F)c2)n1-c1cc(F)c2nn(C)cc2c1 [Example 50, 4-[4-[(3S)-3-Aminopyrrolidine-1-carbonyl]-1-(7-fluoro-2-methylindazol-5-yl)-5-methylimidazol-2-yl]-2-fluorobenzonitrile] | < 100 nM | < 100 nM
CN[C@H]1CCN(C(=O)c2cn(-c3ccc(OC)cc3)c(-c3ccc(C#N)c(F)c3)n2)C1 [Example 71, 2-Fluoro-4-[1-(4-methoxyphenyl)-4-[(3S)-3-(methylamino)pyrrolidine-1-carbonyl]imidazol-2-yl]benzonitrile] | < 100 nM | < 100 nM
CN[C@@H]1CCCN(C(=O)c2cn(-c3ccc4nn(C)c(Cl)c4c3)c(-c3ccc(C#N)c(F)c3)n2)C1 [Example 115, 4-[1-(3-Chloro-2-methylindazol-5-yl)-4-[(3R)-3-(methylamino)piperidine-1-carbonyl]imidazol-2-yl]-2-fluorobenzonitrile] | < 100 nM | < 100 nM
Cc1c(C(=O)N2CCC3(CCCN3)C2)nc(-c2ccc(C#N)c(F)c2)n1-c1ccc2nn(C)cc2c1 (stereo not shown) [Example 90, 4-[4-(1,7-Diazaspiro[4.4]nonane-7-carbonyl)-5-methyl-1-(2-methylindazol-5-yl)imidazol-2-yl]-2-fluorobenzonitrile] | 100 to 1000 nM | < 100 nM
Cn1nc2ccc(-n3cc(C(=O)N[C@@H]4CCCNC4)nc3-c3ccc(C#N)c(F)c3)cc2c1Cl [Example 114, 1-(3-Chloro-2-methylindazol-5-yl)-2-(4-cyano-3-fluorophenyl)-N-[(3R)-piperidin-3-yl]imidazole-4-carboxamide] | < 100 nM | < 100 nM

Results, then the molecule that gave them:

IC50 [1] | IC50 (full-length human LSD1) | Compound
< 100 nM | < 100 nM | N#Cc1ccc(-c2nc(C(=O)N3CC[C@H](N)C3)c(Cl)n2-c2ccc(C3CC3)nc2)cc1F [Example 81, 4-[4-[(3S)-3-Aminopyrrolidine-1-carbonyl]-5-chloro-1-(6-cyclopropylpyridin-3-yl)imidazol-2-yl]-2-fluorobenzonitrile]
< 100 nM | < 100 nM | CN[C@H]1CCN(C(=O)c2cn(-c3ccc4nn(C)c(Cl)c4c3)c(-c3ccc(C#N)c(F)c3)n2)C1 [Example 113, 4-[1-(3-Chloro-2-methylindazol-5-yl)-4-[(3S)-3-(methylamino)pyrrolidine-1-carbonyl]imidazol-2-yl]-2-fluorobenzonitrile]
< 100 nM | < 100 nM | COCCn1c(C(=O)N2CCC[C@@H](N)C2)cc(-c2ccc(C#N)c(F)c2)c1-c1ccc2nn(C)cc2c1 [Example 36, (R)-4-(5-(3-aminopiperidine-1-carbonyl)-1-(2-methoxyethyl)-2-(2-methyl-2H-indazol-5-yl)-1H-pyrrol-3-yl)-2-fluorobenzonitrile]
100 to 1000 nM | < 100 nM | Cc1c(C(=O)N2CCC3(CCN3)C2)nc(-c2ccc(C#N)c(F)c2)n1-c1ccc2c(cnn2C)c1 (stereo not shown) [Example 92, 4-[4-(1,7-Diazaspiro[3.4]octane-7-carbonyl)-5-methyl-1-(1-methylindazol-5-yl)imidazol-2-yl]-2-fluorobenzonitrile]
< 100 nM | < 100 nM | Cc1ccc(-c2c(-c3ccc(C#N)c(F)c3)cc(C(=O)N3CCC[C@@H](N)C3)n2CCCO)cc1 [Example 9]
< 100 nM | < 100 nM | Cn1cc2cc(-c3c(-c4ccc(C#N)c(F)c4)cc(C(=O)N4CCC[C@@H](N)C4)n3C)ccc2n1 [Example 29, 4-{5-[((3R)-3-aminopiperidyl)carbonyl]-1-methyl-2-(2-methyl(2H-indazol-5-yl))pyrrol-3-yl}-2-fluorobenzenecarbonitrile]
< 100 nM | < 100 nM | COc1ccc(-n2c(-c3ccc(C#N)c(F)c3)nc(C(=O)N[C@@H]3CCCNC3)c2Cl)cc1F [Example 84, 5-Chloro-2-(4-cyano-3-fluorophenyl)-1-(3-fluoro-4-methoxyphenyl)-N-[(3R)-piperidin-3-yl]imidazole-4-carboxamide]
100 to 1000 nM | < 100 nM | CN(C)[C@H]1CCN(C(=O)c2cn(-c3ccc4nn(C)cc4c3)c(-c3ccc(C#N)c(F)c3)n2)C1 [Example 99, 4-[4-[(3S)-3-(Dimethylamino)pyrrolidine-1-carbonyl]-1-(2-methylindazol-5-yl)imidazol-2-yl]-2-fluorobenzonitrile]
< 100 nM | < 100 nM | Cn1cc2cc(-c3c(-c4ccc(C#N)c(F)c4)cc(C(=O)NC[C@@H]4CCNC4)n3C)ccc2n1 [Example 40, N-[((3R)pyrrolidin-3-yl)methyl][4-(4-cyano-3-fluorophenyl)-1-methyl-5-(2-methyl(2H-indazol-5-yl))pyrrol-2-yl]carboxamide]
< 100 nM | < 100 nM | Cn1cc2cc(-c3c(-c4ccc(C#N)c(F)c4)cc(C(=O)N4CCC[C@@H](N)C4)n3C[C@H](O)CO)ccc2n1 [Example 39, 4-(5-((R)-3-aminopiperidine-1-carbonyl)-1-((S)-2,3-dihydroxypropyl)-2-(2-methyl-2H-indazol-5-yl)-1H-pyrrol-3-yl)-2-fluorobenzonitrile]
100 to 1000 nM | < 100 nM | COc1ccc(-n2c(-c3ccc(C#N)c(F)c3)nc(C(=O)N3CC[C@@H](N)C3)c2C)cc1 [Example 13, 4-[4-[(3R)-3-aminopyrrolidine-1-carbonyl]-1-(4-methoxyphenyl)-5-methylimidazol-2-yl]-2-fluorobenzonitrile]
